{"source": "patent US9976141B2", "about": "“Compositions and methods for inhibiting gene expression of Hif2alpha” (Arrowhead Madison Inc., priority 2015, dated 2018)", "system": "human (tumor) Hif2α (EPAS1) mRNA", "experiment": "Hif2α knockdown in orthotopic RCC tumor bearing mice, single injection of RNAi trigger-delivery polymer conjugate, RT-qPCR (Table 7)", "assay_type": "in vivo", "conditions": "single tail vein injection, relative to isotonic glucose", "summary_of_the_method": "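Female athymic nude mice carried orthotopic A498-SEAP ccRCC kidney tumours, used 5–6 weeks after implantation. They received one tail-vein injection of RGD-targeted Hif2α RNAi trigger–polymer conjugate or isotonic glucose. Tumour Hif2α mRNA was measured by TaqMan RT-qPCR normalised to CycA (ΔΔCT) and expressed relative to glucose-treated mice.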", "key": {"[1]": {"conditions": "RNAi trigger 100 μg, polymer 064 250 μg"}, "[2]": {"conditions": "RNAi trigger 50 μg, polymer 064 125 μg"}}, "note": "Strand notation (5' to 3'): a small letter for the sugar, then the base; units joined by * are phosphorothioate-linked, units joined directly phosphodiester-linked; [ ] holds rarer units or linkages, { } end groups; capitals alone tell only the bases. {Alk-C6-SMPT-C6} = Alk-C6-SMPT-C6 linker modification, as named by the publication; [invdT] = inverted (3'-3') thymidine; e = 2'-O-(2-methoxyethyl) (MOE); m = 2'-O-methyl; f = 2'-fluoro", "data": [{"substance": "AD01889 (antisense UCUAGCAACAAAACCUUAATT; sense UUAAGGUUUUGUUGCUAGAT; Hif2alpha RNAi agent antisense strand; modified_base 2,4,6,9,10,12,14,15,18 /mod_base = “2′-deoxy-2′-fluoro corresponding nucleoside”; modified_base 1,3,5,7,8,11,13,16,17,19 /mod_base = “2′-O-methyl corresponding nucleoside”; modified_base 2,3,21 /mod_base = “5′-phosphorothioate corresponding nucleotide”; Hif2alpha RNAi agent sense strand; modified_base 3,4,7,9,13,15,17 /mod_base = “2′-deoxy-2′-fluoro corresponding nucleoside”; modified_base 1,2,5,6,8,10,11,12,14,16,18,19 /mod_base = “2′-O-methyl corresponding nucleoside”; modified_base 20 /mod_base = “3′-3′-linked nucleotide”; modified_base)", "values": [{"measurement": "Relative Expression day 4 (Hif2α mRNA in kidney tumor)", "setting": "[1]", "result": 0.282}]}, {"substance": "AD01892 (antisense UGUAAAACAAUUGUGUACUTT; sense AGUACACAAUUGUUUUACAT; Hif2alpha RNAi agent antisense strand; modified_base 2,4,6,8,10,12,14,15,18 /mod_base = “2′-deoxy-2′-fluoro corresponding nucleoside”; modified_base 1,3,5,7,9,11,13,16,17,19 /mod_base = “2′-O-methyl corresponding nucleoside”; modified_base 2,3,21 /mod_base = “5′-phosphorothioate corresponding nucleotide”; Hif2alpha RNAi agent sense strand; modified_base 1,3,4,7,9,11,13,15,17,19 /mod_base = “2′-deoxy-2′-fluoro corresponding nucleoside”; modified_base 2,5,6,8,10,12,14,16,18 /mod_base = “2′-O-methyl corresponding nucleoside”; modified_base 20 /mod_base = “3′-3′-linked nucleotide”; modified_base)", "values": [{"measurement": "Relative Expression day 4 (Hif2α mRNA in kidney tumor)", "setting": "[1]", "result": 0.146}]}, {"substance": "AD01255 (antisense TUUCAUGAAAUCGUUACGUTT; sense UAUACGUAACGAUUUCAUGAAAT; Hif2alpha RNAi agent antisense strand; modified_base 2,4,6,8,10,12,14,16,18 /mod_base = “2′-deoxy-2′-fluoro corresponding nucleoside”; modified_base 3,5,7,9,11,13,15,17,19 /mod_base = “2′-O-methyl corresponding nucleoside”; modified_base 21 /mod_base = “5′-phosphorothioate corresponding nucleotide”; Hif2alpha RNAi agent sense strand; modified_base 2 modified base = “2′-hydroxy corresponding nucleoside”; modified_base 4,6,8,10,12,14,16,18,20,22 /mod_base = “2′-deoxy-2′-fluoro corresponding nucleoside”; modified_base 1,3,5,7,9,11,13,15,17,19,21 /mod_base = “2′-O-methyl correspondin g nucleosid)", "values": [{"measurement": "Relative Expression day 4 (Hif2α mRNA in kidney tumor)", "setting": "RNAi trigger 80 μg, polymer 126 400 μg", "result": 0.28}]}, {"substance": "AD03261 (antisense mA*fU*mUmCmAmUmGfAmAfAmUmCmGfUmUmAmCmGmU*mU*mG; sense ACGUAACGAUUUCAUGAAT; siRNA; sense: sugars from the 5' end e2 m4 f3 m8 e2, [invdT] at 3' end, linkages s1 o18 (s phosphorothioate, o phosphodiester), 5' {Alk-C6-SMPT-C6}, methylation of C not given here; further chemistry not fully specified)", "values": [{"measurement": "Relative Expression day 4 (Hif2α mRNA in kidney tumor)", "setting": "[2]", "result": 0.177}]}, {"substance": "AD01893 (antisense UGUAAAACAAUUGUGUACUTT; sense AGUACACAAUUGUUUUACAT; Hif2alpha RNAi agent antisense strand; modified_base 2,4,6,8,10,12,14,15,18 /mod_base = “2′-deoxy-2′-fluoro corresponding nucleoside”; modified_base 1,3,5,7,9,11,13,16,17,19 /mod_base = “2′-O-methyl corresponding nucleoside”; modified_base 2,3,21 /mod_base = “5′-phosphorothioate corresponding nucleotide”; Hif2alpha RNAi agent sense strand; modified_base 3,4,7,9,11,13,17 /mod_base = “2′-deoxy-2′-fluoro corresponding nucleoside”; modified_base 1,2,5,6,8,10,12,14,15,16,18,19 /mod_base = “2′-O-methyl corresponding nucleoside”; modified_base 20 /mod_base = “3′-3′-linked nucleotide”; modified_base)", "values": [{"measurement": "Relative Expression day 4 (Hif2α mRNA in kidney tumor)", "setting": "[1]", "result": 0.115}]}, {"substance": "AD03253 (antisense UUUCAUGAAAUCGUUACGUUG; sense ACGUAACGAUUUCAUGAAAT; Hif2alpha RNAi agent antisense strand; modified_base 2,4,6,8,14 /mod_base = “2′-deoxy-2′-fluoro corresponding nucleoside”; modified_base 1,3,5,7,9,10,11,12,13,15,16,17,18,19,20,21 /mod_base = “2′-O-methyl corresponding nucleoside”; modified_base 2,3,20,21 /mod_base = “5′-phosphorothioate corresponding nucleotide”; Hif2alpha RNAi agent sense strand; modified_base 7,8,9 /mod_base = “2′-deoxy-2′-fluoro corresponding nucleoside”; modified_base 1,2,3,4,5,6,10,11,12,13,14,15,16,17,18,19 /mod_base = “2′-O-methyl corresponding nucleoside”; modified_base 20 /mod_base = “3′-3′-linked nucleotide”; modi)", "values": [{"measurement": "Relative Expression day 4 (Hif2α mRNA in kidney tumor)", "setting": "[2]", "result": 0.188}]}, {"substance": "AD02693 (antisense UUUCAUGAAAUCGUUACGUUG; sense ACGUAACGAUUUCAUGAAAT; Hif2alpha RNAi agent antisense strand; modified_base 2,4,6,8,10,14,16,18 /mod_base = “2′-deoxy-2′-fluoro corresponding nucleoside”; modified_base 1,3,5,7,9,11,12,13,15,17,19,20,21 /mod_base = “2′-O-methyl corresponding nucleoside”; modified_base 2,3,20,21 /mod_base = “5′-phosphorothioate corresponding nucleotide”; Hif2alpha RNAi agent sense strand; modified_base 5,7,9,13,15,17 /mod_base = “2′-deoxy-2′-fluoro corresponding nucleoside”; modified_base 1,2,3,4,6,8,10,11,12,14,16,18,19 /mod_base = “2′-O-methyl corresponding nucleoside”; modified_base 20 /mod_base = “3′-3′-linked nucleotide”; modi)", "values": [{"measurement": "Relative Expression day 4 (Hif2α mRNA in kidney tumor)", "setting": "RNAi trigger 75 μg, polymer 064 187.5 μg", "result": 0.122}]}]}
